# Assay results from publication PMC7932537, “Quantitative profiling of protease specificity” (PLoS Computational Biology, 2021).
# Assays:
# [1] = system: MMP-2; assay: N-terminomic (TMT) analysis of MMP-treated HEK293 secretome: isotopic enrichment of novel N-termini; assay type: biochemical, human; details: for isotopic enrichment (log2(ratio)): MMP2 cleavages in HEK293 cell proteins, determined by LC-MS/MS, novel N-termini, sections log2(ratio) >3σ, 2σ-3σ, 1σ-2σ, RP above 4.5
# Protocol: (§1) This was done to achieve a reasonable compromise between the false positive and false negative rates based on the statistical model developed by the authors. […] (See Methods for details).
# (§2) HEK293 cells were seeded in 150-mm tissue culture dishes (Corning) and grown to confluence. The confluent cultures were washed with PBS several times to remove serum proteins and kept in serum-free DMEM supplemented with 1 μM GM6001 for 72 hours at 37 C, 5% CO2. The conditioned media was centrifuged at 10,000 x g for 30 minutes at 4 C and concentrated ~100-fold using Centricon Plus-70 (AMD Millipore) 3-kDa m.w. cut-off ultrafilter, and the buffer was exchanged to 50 mM HEPES pH 7.0 containing 150 mM NaCl and 10 mM CaCl2 (Reaction Buffer) using a PD-10 desalting column (GE Healthcare). Aliquots containing 240 μg total protein were incubated at 37 C in the presence of 750 nM MMP2 or 9 or the Reaction Buffer alone for 2 hours. Each reaction was carried out in duplicate. The reactions were stopped by addition of 20 mM EDTA and subjected to denaturation/reduction (4M Urea and 10 mM TCEP, 1 h, 22°C) and alkylation (20 mM iodoacetamide, 30 min, 22°C, in dark). […] The TMT-labeled samples were pooled together, and subjected to TCA precipitation (20% TCA, 16 h, 4°C). Each pellet was washed with -20°C acetone, recovered in 50 mM Tris-HCl pH 8.0, and then digested with trypsin/Lys-C (Promega) for 16 h at 37°C. Digestions were stopped with 0.2% TFA and centrifuged to remove insoluble material. The supernatants were then desalted using Sep-Pak C18 cartridge (50 mg), and then lyophilized.
# (§3) Dried pooled sample was reconstituted in 20 mM ammonium formate pH ~10 and fractionated using a Waters Acquity BEH C18 column (2.1x 15 cm, 1.7 μm pore size) mounted on an M-Class Ultra Performance Liquid Chromatography (UPLC) system (Waters). […] A total of 32 fractions were collected and pooled in a non-contiguous manner into 16 total fractions. Pooled fractions were dried to completeness in a SpeedVac concentrator prior to mass spectrometry analysis.
# (§4) Dried peptide fractions were reconstituted with 2% ACN-0.1% FA and analyzed by LC-MS/MS using a Proxeon EASY nanoLC system (Thermo Fisher Scientific) coupled to a Q-Exactive Plus mass spectrometer (Thermo Fisher Scientific). […] The mass spectrometer was operated in positive data-dependent acquisition mode. MS1 spectra were measured with a resolution of 70,000 (AGC target: 1e6; mass range: 350–1700 m/z).
# (§5) The false discovery rate (FDR) filter for spectrum and protein identification was set to 1%. Carbamidomethylation of cysteines was searched as a fixed modification, while oxidation of methionines and N-terminal acetylation were searched as variable modifications. Enzyme was set to trypsin in a semispecific mode and a maximum of two missed cleavages was allowed for searching. To obtain quantification of the TMT-labeled N-termini, two independent searches were performed–one with TMT10plex MS2 N-terminal reporter quantification and the other for quantification of N-terminal and lysine sidechain.
# [2] = system: MMP-9; assay: as above; assay type: biochemical, human; details: for isotopic enrichment (log2(ratio)) (acc.to MMP9): HEK293 proteins; for isotopic enrichment (log2(ratio)): MMP9 cleavages in HEK293 cell proteins, determined by LC-MS/MS, log2(ratio) range (>3σ, 2σ-3σ, 1σ-2σ)
# Protocol: as §1, §2, §3, §4, §5
# [3] = MMP2 cleaved HEK293 proteins, common set of MMP2-9 selectome, LC-MS/MS
# [4] = MS detected cleavage sequence, HEK293 proteins, common MMP2-9 selectome
# [5] = MMP9, common set of MMP2-9 selectome, LC-MS/MS
# [6] = MS detected cleavage sequence, common MMP2-9 selectome
# [7] = MS detected cleavage sequence, HEK293 proteins, unique part of MMP2 selectome
# [8] = MS detected cleavage sequence, unique part of MMP2 selectome
Substance,"isotopic enrichment (log2(ratio)) (acc.to MMP2) [1, 3]","isotopic enrichment (log2(ratio)) (acc.to MMP2) [1, 4]","isotopic enrichment (log2(ratio)) (acc.to MMP9) [2, 5]",isotopic enrichment (log2(ratio)) [2],"isotopic enrichment (log2(ratio)) (acc.to MMP9) [2, 6]","isotopic enrichment (log2(ratio)) (acc.to MMP2) [1, 7]","isotopic enrichment (log2(ratio)) (acc.to MMP9) [2, 8]",isotopic enrichment (log2(ratio)) [1]
GRTLG-LYGKDQ,2.467,2.467 log2(ratio),3.7845,3.7845,3.7845 log2(ratio),,,
FHPEQ-LITGKE,2.036,2.036 log2(ratio),2.628,2.628,2.628 log2(ratio),,,
QSPVA-VSQSKP,4.031,4.031 log2(ratio),4.621,4.621,4.621 log2(ratio),,,
STMNM-LGGGGS,,,,,,2.417 log2(ratio),0.9184 log2(ratio),
PTAAA-IAYGLD,1.585,,0.8074,,,,,1.585 log2(ratio)
VAAKN-LQEAEE,1.485,1.485 log2(ratio),2.192,2.192,2.192 log2(ratio),,,
MPMF-IVNTNV,,0.8319 log2(ratio),,1.66,1.66 log2(ratio),,,
AGARG-IQGPQG,,0.8156 log2(ratio),,1.521,1.521 log2(ratio),,,
AGAAA-LSSASS,2.491,2.491 log2(ratio),3.911,3.911,3.911 log2(ratio),,,
VTPAN-ASGIND,,,,,,0.9486 log2(ratio),1.864 log2(ratio),
PEPES-WNAAQH,,,,,,1.66 log2(ratio),1.956 log2(ratio),
TRPLA-VEVVTE,4.353,4.353 log2(ratio),4.995,4.995,4.995 log2(ratio),,,
YRPVA-VALDTK,1.934,1.934 log2(ratio),2.604,2.604,2.604 log2(ratio),,,
SDPLT-LLQADT,1.22,2.4906 log2(ratio),2.254,2.254,2.254 log2(ratio),,,1.22 log2(ratio)
GLPRE-LAEAVA,,0.7485 log2(ratio),,2.272,2.272 log2(ratio),,,
PTPVP-VVGSQM,1.915,1.915 log2(ratio),2.707,2.707,2.707 log2(ratio),,,
VLPVN-VTDYCQ,,0.7225 log2(ratio),,3.756,3.756 log2(ratio),,,
MEPVA-HFGLGK,,0.3448 log2(ratio),,1.731,1.731 log2(ratio),,,
SSPRH-SEAATA,3.599,3.599 log2(ratio),4.654,4.654,4.654 log2(ratio),,,
TGPRF-LISDRD,1.669,1.669 log2(ratio),2.331,2.331,2.331 log2(ratio),,,
EEPLN-VGSVAA,2.637,2.637 log2(ratio),3.642,3.642,3.642 log2(ratio),,,
HLVRN-IQLEQP,3.263,3.263 log2(ratio),3.981,3.981,3.981 log2(ratio),,,
EAPRP-YSKQVS,1.239,1.239 log2(ratio),1.531,1.531,1.531 log2(ratio),,,
GSPDA-LQNPCY,,0.926 log2(ratio),,3.536,3.536 log2(ratio),,,
EGPYS-ISVLYG,1.176,,0.9411,,,,,1.176 log2(ratio)
IFLRE-LISNAS,1.176,1.176 log2(ratio),1.628,1.628,1.628 log2(ratio),,,
FNPLS-LEELGS,,0.84 log2(ratio),,1.82,1.82 log2(ratio),,,
VVPFG-VPASAT,,0.189 log2(ratio),,2.014,2.014 log2(ratio),,,
